According to ChEMBL document CHEMBL4507283, “Data for DCP probe BI-1935” (2021):

How the values were obtained:
[1] = target: Alpha-1A adrenergic receptor (Homo sapiens) (UniProt P35348); conditions: Compound concentration 10.0 uM
[2] = target: 5-hydroxytryptamine receptor 7 (Homo sapiens) (UniProt P34969); conditions: Compound concentration 10.0 uM
[3] = target: Histamine H3 receptor (Homo sapiens) (UniProt Q9Y5N1); conditions: Compound concentration 10.0 uM
[4] = target: 5-hydroxytryptamine receptor 2B (Homo sapiens) (UniProt P41595); conditions: Compound concentration 10.0 uM
[5] = target: T1, 5-hydroxytryptamine receptor 3A (Homo sapiens) (UniProt P46098); conditions: Compound concentration 10.0 uM
T1 sequence (whole entry): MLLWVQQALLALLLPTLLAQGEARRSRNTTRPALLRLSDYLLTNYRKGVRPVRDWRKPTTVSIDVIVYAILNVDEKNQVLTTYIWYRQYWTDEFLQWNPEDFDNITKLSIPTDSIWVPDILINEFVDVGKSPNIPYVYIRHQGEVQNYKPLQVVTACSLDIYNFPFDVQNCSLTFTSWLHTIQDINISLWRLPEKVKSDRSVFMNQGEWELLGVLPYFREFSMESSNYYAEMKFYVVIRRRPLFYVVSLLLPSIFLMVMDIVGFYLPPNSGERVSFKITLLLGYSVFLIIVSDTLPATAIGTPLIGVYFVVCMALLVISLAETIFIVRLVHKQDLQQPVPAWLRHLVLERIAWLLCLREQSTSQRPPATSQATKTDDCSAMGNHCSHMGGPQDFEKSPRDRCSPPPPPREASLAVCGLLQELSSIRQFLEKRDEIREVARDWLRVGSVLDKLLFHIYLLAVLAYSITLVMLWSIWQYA

[6] = target: 5-hydroxytryptamine receptor 1E (Homo sapiens) (UniProt P28566); conditions: Compound concentration 10.0 uM
[7] = target: 5-hydroxytryptamine receptor 2A (Homo sapiens) (UniProt P28223); conditions: Compound concentration 10.0 uM
[8] = target: D(2) dopamine receptor (Homo sapiens) (UniProt P14416); conditions: Compound concentration 10.0 uM
[9] = target: Alpha-1D adrenergic receptor (Homo sapiens) (UniProt P25100); conditions: Compound concentration 10.0 uM
[10] = target: 5-hydroxytryptamine receptor 5A (Homo sapiens) (UniProt P47898); conditions: Compound concentration 10.0 uM
[11] = target: Histamine H4 receptor (Homo sapiens) (UniProt Q9H3N8); conditions: Compound concentration 10.0 uM
[12] = target: Muscarinic acetylcholine receptor M5 (Homo sapiens) (UniProt P08912); conditions: Compound concentration 10.0 uM
[13] = target: Histamine H2 receptor (Homo sapiens) (UniProt P25021); conditions: Compound concentration 10.0 uM
[14] = target: Alpha-1B adrenergic receptor (Homo sapiens) (UniProt P35368); conditions: Compound concentration 10.0 uM
[15] = target: D(1A) dopamine receptor (Homo sapiens) (UniProt P21728); conditions: Compound concentration 10.0 uM
[16] = target: Kappa-type opioid receptor (Homo sapiens) (UniProt P41145); conditions: Compound concentration 10.0 uM
[17] = target: Alpha-2A adrenergic receptor (Homo sapiens) (UniProt P08913); conditions: Compound concentration 10.0 uM
[18] = target: Beta-2 adrenergic receptor (Homo sapiens) (UniProt P07550); conditions: Compound concentration 10.0 uM
[19] = target: Muscarinic acetylcholine receptor M3 (Homo sapiens) (UniProt P20309); conditions: Compound concentration 10.0 uM
[20] = target: 5-hydroxytryptamine receptor 1A (Homo sapiens) (UniProt P08908); conditions: Compound concentration 10.0 uM
[21] = target: 5-hydroxytryptamine receptor 1B (Homo sapiens) (UniProt P28222); conditions: Compound concentration 10.0 uM
[22] = target: GABA-A receptor; anion channel (Rattus norvegicus) (UniProt O09028+P15431+P18506+P18508+P19969+P20236+P23574+P23576+P28471+P28473+P30191+P62813+P63079+P63138+Q91ZM7+Q9ES14); conditions: Compound concentration 10.0 uM
[23] = target: Sigma intracellular receptor 2 (Homo sapiens) (UniProt Q5BJF2); conditions: Compound concentration 10.0 uM
[24] = target: Mu-type opioid receptor (Homo sapiens) (UniProt P35372); conditions: Compound concentration 10.0 uM
[25] = target: 5-hydroxytryptamine receptor 1D (Homo sapiens) (UniProt P28221); conditions: Compound concentration 10.0 uM
[26] = target: Sodium-dependent serotonin transporter (Homo sapiens) (UniProt P31645); conditions: Compound concentration 10.0 uM
[27] = target: Beta-1 adrenergic receptor (Homo sapiens) (UniProt P08588); conditions: Compound concentration 10.0 uM
Rattus norvegicus = species: Rattus norvegicus; conditions: Compound concentration 10.0 uM
[28] = target: D(3) dopamine receptor (Homo sapiens) (UniProt P35462); conditions: Compound concentration 10.0 uM
[29] = target: Alpha-2C adrenergic receptor (Homo sapiens) (UniProt P18825); conditions: Compound concentration 10.0 uM
[30] = target: Beta-3 adrenergic receptor (Homo sapiens) (UniProt P13945); conditions: Compound concentration 10.0 uM
[31] = target: Muscarinic acetylcholine receptor M2 (Homo sapiens) (UniProt P08172); conditions: Compound concentration 10.0 uM
[32] = target: T2, Bifunctional epoxide hydrolase 2 (Homo sapiens, UniProt P34913); assay: Human soluble epoxide hydrolase inhibition
T2 sequence (P34913 whole entry): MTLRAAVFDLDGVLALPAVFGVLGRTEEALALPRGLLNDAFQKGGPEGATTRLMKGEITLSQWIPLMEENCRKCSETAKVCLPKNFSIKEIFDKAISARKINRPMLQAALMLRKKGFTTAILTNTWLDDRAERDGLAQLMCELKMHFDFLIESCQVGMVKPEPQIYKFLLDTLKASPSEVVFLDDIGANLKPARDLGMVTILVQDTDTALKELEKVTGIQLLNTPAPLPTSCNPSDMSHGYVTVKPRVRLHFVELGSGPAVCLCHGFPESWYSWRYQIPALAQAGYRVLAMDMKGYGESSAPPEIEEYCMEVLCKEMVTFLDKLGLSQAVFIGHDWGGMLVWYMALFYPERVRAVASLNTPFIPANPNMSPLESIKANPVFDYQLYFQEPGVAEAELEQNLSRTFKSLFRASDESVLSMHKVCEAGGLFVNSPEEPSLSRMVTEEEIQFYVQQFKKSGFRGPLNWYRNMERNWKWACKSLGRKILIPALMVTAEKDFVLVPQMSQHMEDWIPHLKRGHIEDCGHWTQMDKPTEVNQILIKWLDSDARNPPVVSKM

[33] = target: T3, Sodium-dependent dopamine transporter (Homo sapiens, UniProt Q01959); conditions: Compound concentration 10.0 uM
[34] = target: Muscarinic acetylcholine receptor M1 (Homo sapiens) (UniProt P11229); conditions: Compound concentration 10.0 uM
[35] = target: Delta-type opioid receptor (Homo sapiens) (UniProt P41143); conditions: Compound concentration 10.0 uM
[36] = target: Sodium-dependent noradrenaline transporter (Homo sapiens) (UniProt P23975); conditions: Compound concentration 10.0 uM
[37] = target: Alpha-2B adrenergic receptor (Homo sapiens) (UniProt P18089); conditions: Compound concentration 10.0 uM
[38] = target: T3, Sodium-dependent dopamine transporter; assay: GPCRScan assay: inhibition of DAT; parameters: radioligand conc. used [nm] 3.6 – 16.0, parental cells stable HEK
[39] = target: Histamine H1 receptor (Homo sapiens) (UniProt P35367); conditions: Compound concentration 10.0 uM
[40] = target: Muscarinic acetylcholine receptor M4 (Homo sapiens) (UniProt P08173); conditions: Compound concentration 10.0 uM

T3 sequence (Q01959 whole entry): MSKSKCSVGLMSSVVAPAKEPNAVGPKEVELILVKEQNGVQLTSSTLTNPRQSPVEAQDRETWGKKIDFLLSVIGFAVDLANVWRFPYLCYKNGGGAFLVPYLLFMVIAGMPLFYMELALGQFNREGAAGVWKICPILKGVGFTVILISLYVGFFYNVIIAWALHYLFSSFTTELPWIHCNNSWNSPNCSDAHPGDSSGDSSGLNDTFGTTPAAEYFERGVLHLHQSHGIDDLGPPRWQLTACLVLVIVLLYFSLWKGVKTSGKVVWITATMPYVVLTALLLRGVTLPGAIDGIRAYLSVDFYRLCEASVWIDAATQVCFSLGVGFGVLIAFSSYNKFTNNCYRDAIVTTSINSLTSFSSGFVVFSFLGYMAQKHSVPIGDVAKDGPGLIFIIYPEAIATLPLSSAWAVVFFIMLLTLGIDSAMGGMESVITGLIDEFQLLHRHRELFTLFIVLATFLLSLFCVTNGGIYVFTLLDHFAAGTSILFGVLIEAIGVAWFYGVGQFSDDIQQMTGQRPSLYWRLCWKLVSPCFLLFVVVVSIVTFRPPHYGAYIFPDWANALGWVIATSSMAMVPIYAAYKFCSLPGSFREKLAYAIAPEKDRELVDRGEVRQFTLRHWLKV
Sequence of 5-hydroxytryptamine receptor 7 (Homo sapiens) (P34969 whole entry): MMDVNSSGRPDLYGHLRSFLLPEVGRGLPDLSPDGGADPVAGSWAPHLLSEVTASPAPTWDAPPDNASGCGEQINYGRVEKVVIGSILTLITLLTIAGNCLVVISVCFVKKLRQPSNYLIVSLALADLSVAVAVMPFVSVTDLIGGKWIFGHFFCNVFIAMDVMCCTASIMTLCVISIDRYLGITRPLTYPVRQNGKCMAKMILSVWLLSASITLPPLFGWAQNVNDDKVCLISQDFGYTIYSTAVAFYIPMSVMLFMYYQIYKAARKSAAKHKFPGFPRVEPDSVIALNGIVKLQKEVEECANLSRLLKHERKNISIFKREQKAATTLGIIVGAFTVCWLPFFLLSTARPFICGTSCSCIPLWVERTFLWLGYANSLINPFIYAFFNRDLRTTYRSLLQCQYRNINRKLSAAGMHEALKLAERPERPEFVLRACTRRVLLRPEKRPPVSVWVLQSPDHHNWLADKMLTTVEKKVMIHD
Sequence of 5-hydroxytryptamine receptor 5A (Homo sapiens) (P47898 whole entry): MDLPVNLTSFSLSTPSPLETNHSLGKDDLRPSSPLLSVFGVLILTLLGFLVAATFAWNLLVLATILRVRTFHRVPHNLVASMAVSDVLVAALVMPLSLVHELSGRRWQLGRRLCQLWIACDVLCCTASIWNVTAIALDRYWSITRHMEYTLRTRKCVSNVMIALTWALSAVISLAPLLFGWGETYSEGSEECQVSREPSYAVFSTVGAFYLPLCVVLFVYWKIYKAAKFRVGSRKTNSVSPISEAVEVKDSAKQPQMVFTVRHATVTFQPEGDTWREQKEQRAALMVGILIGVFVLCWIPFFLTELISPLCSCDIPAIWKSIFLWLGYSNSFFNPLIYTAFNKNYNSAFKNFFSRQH
Sequence of 5-hydroxytryptamine receptor 1D (Homo sapiens) (P28221 whole entry): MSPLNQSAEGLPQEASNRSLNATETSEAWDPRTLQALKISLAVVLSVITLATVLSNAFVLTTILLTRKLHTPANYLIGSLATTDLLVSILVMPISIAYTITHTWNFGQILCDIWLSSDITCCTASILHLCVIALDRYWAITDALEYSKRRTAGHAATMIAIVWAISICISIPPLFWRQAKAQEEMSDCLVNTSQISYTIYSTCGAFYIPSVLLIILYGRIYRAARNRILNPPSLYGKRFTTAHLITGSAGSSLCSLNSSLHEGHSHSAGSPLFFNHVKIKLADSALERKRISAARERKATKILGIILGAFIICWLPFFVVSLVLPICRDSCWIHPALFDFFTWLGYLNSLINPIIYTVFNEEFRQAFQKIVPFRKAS
Sequence of Beta-2 adrenergic receptor (Homo sapiens) (P07550 whole entry, looked up): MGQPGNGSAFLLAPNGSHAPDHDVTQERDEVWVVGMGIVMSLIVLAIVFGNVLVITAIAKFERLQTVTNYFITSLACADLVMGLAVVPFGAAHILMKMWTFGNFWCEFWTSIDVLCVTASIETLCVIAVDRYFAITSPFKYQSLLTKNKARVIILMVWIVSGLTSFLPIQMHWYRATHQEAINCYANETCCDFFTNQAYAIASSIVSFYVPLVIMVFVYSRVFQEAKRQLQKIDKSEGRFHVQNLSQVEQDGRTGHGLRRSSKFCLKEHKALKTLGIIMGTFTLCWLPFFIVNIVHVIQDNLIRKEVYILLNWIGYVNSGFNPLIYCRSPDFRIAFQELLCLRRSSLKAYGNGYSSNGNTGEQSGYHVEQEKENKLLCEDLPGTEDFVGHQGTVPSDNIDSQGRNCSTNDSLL
Sequence of Alpha-2B adrenergic receptor (Homo sapiens) (P18089 whole entry): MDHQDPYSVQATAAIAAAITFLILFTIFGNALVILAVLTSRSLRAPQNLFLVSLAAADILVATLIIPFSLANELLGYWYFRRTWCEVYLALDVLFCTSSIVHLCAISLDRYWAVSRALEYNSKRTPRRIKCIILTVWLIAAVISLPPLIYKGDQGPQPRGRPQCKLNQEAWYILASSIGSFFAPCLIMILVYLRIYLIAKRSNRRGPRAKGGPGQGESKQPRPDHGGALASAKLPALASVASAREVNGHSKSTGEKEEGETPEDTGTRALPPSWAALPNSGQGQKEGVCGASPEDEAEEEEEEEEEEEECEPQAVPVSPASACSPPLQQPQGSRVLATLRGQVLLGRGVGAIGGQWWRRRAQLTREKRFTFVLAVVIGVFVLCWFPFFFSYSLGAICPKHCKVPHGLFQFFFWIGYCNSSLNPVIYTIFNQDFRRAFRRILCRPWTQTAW
Sequence of 5-hydroxytryptamine receptor 1E (Homo sapiens) (P28566 whole entry): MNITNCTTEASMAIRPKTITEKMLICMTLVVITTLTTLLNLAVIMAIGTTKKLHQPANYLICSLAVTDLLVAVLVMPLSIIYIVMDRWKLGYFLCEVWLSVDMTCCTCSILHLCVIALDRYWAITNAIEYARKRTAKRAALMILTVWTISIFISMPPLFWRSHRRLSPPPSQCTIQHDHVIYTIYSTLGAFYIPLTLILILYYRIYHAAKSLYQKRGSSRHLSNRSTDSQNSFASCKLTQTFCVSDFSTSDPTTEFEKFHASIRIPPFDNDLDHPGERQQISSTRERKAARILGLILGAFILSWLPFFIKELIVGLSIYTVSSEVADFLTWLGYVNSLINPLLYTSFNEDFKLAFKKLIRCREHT
Sequence of Muscarinic acetylcholine receptor M1 (Homo sapiens) (P11229 whole entry): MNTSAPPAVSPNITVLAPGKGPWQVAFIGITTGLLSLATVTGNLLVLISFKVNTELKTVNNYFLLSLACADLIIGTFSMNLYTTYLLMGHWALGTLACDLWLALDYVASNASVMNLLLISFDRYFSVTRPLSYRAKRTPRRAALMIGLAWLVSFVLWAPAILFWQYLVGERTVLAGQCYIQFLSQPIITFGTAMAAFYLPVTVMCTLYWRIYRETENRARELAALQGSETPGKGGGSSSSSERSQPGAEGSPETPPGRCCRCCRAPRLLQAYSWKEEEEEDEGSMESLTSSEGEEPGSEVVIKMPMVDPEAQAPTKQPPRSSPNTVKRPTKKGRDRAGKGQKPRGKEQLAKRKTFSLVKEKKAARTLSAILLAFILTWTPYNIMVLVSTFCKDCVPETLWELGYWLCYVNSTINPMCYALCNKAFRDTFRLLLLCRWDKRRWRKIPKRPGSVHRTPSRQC
Sequence of Beta-1 adrenergic receptor (Homo sapiens) (P08588 whole entry, looked up): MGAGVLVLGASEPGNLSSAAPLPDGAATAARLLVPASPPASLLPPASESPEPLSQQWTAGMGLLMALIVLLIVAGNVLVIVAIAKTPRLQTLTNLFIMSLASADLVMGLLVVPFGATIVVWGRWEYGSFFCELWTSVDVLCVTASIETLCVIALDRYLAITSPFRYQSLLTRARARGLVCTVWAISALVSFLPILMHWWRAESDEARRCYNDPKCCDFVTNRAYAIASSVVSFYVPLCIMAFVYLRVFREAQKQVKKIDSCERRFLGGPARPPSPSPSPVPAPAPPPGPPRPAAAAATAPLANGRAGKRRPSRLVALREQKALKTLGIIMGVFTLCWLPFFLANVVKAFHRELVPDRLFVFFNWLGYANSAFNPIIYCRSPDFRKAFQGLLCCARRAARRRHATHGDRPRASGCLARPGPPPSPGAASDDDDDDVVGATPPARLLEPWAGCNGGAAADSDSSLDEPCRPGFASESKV
Sequence of Histamine H3 receptor (Homo sapiens) (Q9Y5N1 whole entry): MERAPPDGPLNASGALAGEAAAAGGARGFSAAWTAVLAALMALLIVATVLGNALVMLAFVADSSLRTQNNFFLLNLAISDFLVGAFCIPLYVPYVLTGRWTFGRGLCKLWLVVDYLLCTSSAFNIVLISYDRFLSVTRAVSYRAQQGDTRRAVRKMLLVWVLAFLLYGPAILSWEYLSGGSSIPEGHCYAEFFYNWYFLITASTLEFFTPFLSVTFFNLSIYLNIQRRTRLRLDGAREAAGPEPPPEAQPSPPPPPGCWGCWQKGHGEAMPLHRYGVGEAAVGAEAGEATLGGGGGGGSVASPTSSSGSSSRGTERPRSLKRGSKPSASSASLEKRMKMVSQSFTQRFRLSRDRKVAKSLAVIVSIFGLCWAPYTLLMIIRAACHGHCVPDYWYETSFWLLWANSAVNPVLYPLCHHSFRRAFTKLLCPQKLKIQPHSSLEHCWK
Sequence of Alpha-2C adrenergic receptor (Homo sapiens) (P18825 whole entry): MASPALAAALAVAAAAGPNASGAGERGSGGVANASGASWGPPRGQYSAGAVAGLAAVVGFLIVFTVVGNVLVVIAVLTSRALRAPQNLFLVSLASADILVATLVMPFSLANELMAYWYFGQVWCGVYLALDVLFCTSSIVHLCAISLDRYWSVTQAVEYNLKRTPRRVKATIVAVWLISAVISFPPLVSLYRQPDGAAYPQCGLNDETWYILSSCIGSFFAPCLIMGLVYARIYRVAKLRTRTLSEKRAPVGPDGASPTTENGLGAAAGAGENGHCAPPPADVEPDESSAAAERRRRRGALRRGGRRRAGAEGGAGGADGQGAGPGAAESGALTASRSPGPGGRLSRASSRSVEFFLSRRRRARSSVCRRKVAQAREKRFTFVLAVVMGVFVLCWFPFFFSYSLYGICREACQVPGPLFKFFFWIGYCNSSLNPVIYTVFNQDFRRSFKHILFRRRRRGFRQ

O=C(Nc1ccc(-n2nc(-c3cccnc3)cc2C(F)(F)F)cn1)c1ccc(-c2ccccc2)c(F)c1 [BI 2049]
inhibition [1]: 1.9% | inhibition [2]: 6.21% | inhibition [3]: -1.54% | inhibition [4]: 9.91% | inhibition [5]: -8.89% | inhibition [6]: -4.45% | inhibition [7]: -1.62% | inhibition [8]: -9.24% | inhibition [9]: 18.3% | inhibition [10]: -2.92% | inhibition [11]: -9.32% | inhibition [12]: 0.37% | inhibition [13]: -5.62% | inhibition [14]: -3.49% | inhibition [15]: 4.32% | inhibition [16]: 13.8% | inhibition [17]: 8.3% | inhibition [18]: 5.14% | inhibition [19]: 3.71% | inhibition [20]: -3.06% | inhibition [21]: -0.85% | inhibition [22]: 16.1% | inhibition [23]: 30.1% | inhibition [24]: 7.17% | inhibition [25]: -9.83% | inhibition [26]: 9.16% | inhibition [27]: 0.23% | inhibition (Rattus norvegicus): 15% | inhibition [28]: 8.38% | inhibition [29]: 6.33% | inhibition [30]: -0.78% | inhibition [31]: 9.94% | IC50 [32]: > 3 µM (not active) | inhibition [33]: 68.2% | inhibition [34]: 25.5% | inhibition [35]: 3.77% | inhibition [36]: -9.35% | inhibition [37]: 1.26% | pKi [38]: < 5 | Ki ([38]; read-out: Ki): > 10 µM | inhibition [39]: 3.07% | inhibition [40]: 0.8%
